# Measurements as given in patent US12539281B2 (priority 2021, dated 2026).
# Where two headings read alike, the source gives them in different places.
# Columns and labels:
# [1] = test system: blood-brain barrier (BBB)
# [2] = test system: blood-brain barrier (BBB); details: IA NEO100, IA mannitol; stated for comparison, no test described; cited from earlier work
# [3] = test system: blood-brain barrier (BBB); assay: IA ethyl alcohol, NEO100 or mannitol mediated BBB disruption, extravasated EB dye in perfused mouse brain (Experiments 1-3); format: in vivo, mice; details: for EB dye penetration level / EB dye / Patchy, or punctate pattern of EB dye: perfused mouse brain
# Procedure: The method of IA and IC injection is similar to the IV push in the clinic, which comprises essentially the steps of: • pushing the injection composition at a particular infusion flow rate immediately after the placement of the IA catheter into the internal carotid artery (ICA) or the insertion of the injection needle into the left ventricle via the ultrasound-guided intracardiac (IC) puncture at room temperature.
# When performing the IA and IC injections, the infusion flow rate is about 5-7 μl/second (0.3-0.45 ml/min), the infusion volume is about […] of the body weight (at 1 μl/g, volume/weight ratio), and USP purified water or sodium chloride is used to reconstitute varied EA solutions at room temperature.
# Intracardiac injection of NEO100 or EA can be carried out through the procedure of ultrasound-guided intracardiac (IC) injection. […] The mouse is anesthetized in an induction chamber using 2-3% isoflurane in 100% oxygen at a rate of 0.2-0.5 L/min. Fur over the thorax area is removed and the animal is placed in a stereotactic frame in supine position, securing the upper and lower limbs to avoid body movement. The ultrasound transducer is placed above the chest of the animal, and the injection syringe is anchored to a platform to avoid erratic needle movements. An electrocardiogram monitor is used to monitor heart function during the intracardiac injection.
# EB dye is used as the non-BBB permeable substance.
# Photographs of the perfused brain tissues of the experimental mice after treatment are taken.
# Extravasated EB dye is used as the non-BBB permeable substance.
# [4] = test system: blood-brain barrier (BBB); assay: Comparison of intracardiac EA and NEO100 mediated BBB opening, EB dye (Comparative Experiment 19, Experiment 20); format: in vivo, mice
# Procedure: Intracardiac injected various concentrations of EA (at 25%, 20%, 3%, 0.3%, and 0.1%, 0.03%, 0.01%) and NEO100 (at 25%, 20%, 3%, 0.3%, and 0.1%, 0.03%, 0.01%) are used on mice to test their effects on BBB disruption and evaluated by the observation of extravasated EB dye in the brain tissues. […] Photographs of the perfused brain tissues from the experimental mice treated with […] EA and NEO100 are taken for observation and comparison.
# The same procedure as experiment 19 was performed with IA 0.3% NEO100 with 2% EB dye solution.
# [5] = cited from earlier work
# [6] = Comparison of the toxicity of IA NEO100 and IA EA (Experiment 21)
# Procedure: The safety profile of IA 0.3% NEO100 vs. IA 0.3% EA are compared. […] There are 15 experimental mice in each testing group. The potential adverse effects are evaluated.
# [7] = IA injection 0.3%, 15 mice per group
# [8] = IA injection 0.3%, 15 mice per group, number of mice
structure (smiles),measurement,setting,value
OC[C@@H](O)[C@@H](O)[C@H](O)[C@H](O)CO [mannitol],EB (induced BBB disruption),[1]; group A: 1800 μl 25% mannitol infused in 30 seconds,observed
same,EB (induced BBB disruption),"[1]; group C: 300 μl 25% mannitol at regular speed in 1 minute, warmed to 37° C.",not observed
same,interval window of the breached BBB,[2],6 to 7 h
same,EB dye penetration level,[3]; IA agent at 0.1%,Not
same,EB dye penetration level,[3]; IA agent at 0.3%,Not
same,EB dye penetration level,[3]; IA agent at 3%,Not
same,EB dye penetration level,[3]; IA agent at 5%,Not
same,brain damage,"[3]; IA mannitol at 0.1%, 0.3%, 3%, and 5%, mice",Some brain damage is observed
same,disrupted BBB after IC mannitol,"[3]; IC application of varied volumes of high concentrations of mannitol, mice",No disrupted BBB is observed
"C=C(C)[C@@H]1CC=C(CO)CC1 [NEO100, perillyl alcohol]",brain finding in sudden-death mouse (inferior view),"[4]; IA 0.3% NEO100 with 2% EB dye, mouse died right after treatment",bleeding and a blood clot
same,"pattern of breached BBB, coronal section","[4]; IA 25% NEO, mice","random, haphazard, sporadic, patchy, or punctate pattern"
same,dose response of BBB disruption,"[4]; intracardiac 25%, 20%, 3%, 0.3%, 0.1%, 0.03%, 0.01%, mice",dose-dependent manner
same,solubility in water,[5],water-insoluble
same,interval window of the breached BBB,[2],4 h
same,EB dye,[3]; IA agent at 0.1%,Observed
same,EB dye penetration level,[3]; IA agent at 0.1%,Few Patchy
same,"Patchy, or punctate pattern of EB dye",[3]; IA agent at 0.1%,Observed
same,EB dye,[3]; IA agent at 0.3%,Observed
same,EB dye penetration level,[3]; IA agent at 0.3%,Widely
same,"Patchy, or punctate pattern of EB dye",[3]; IA agent at 0.3%,Observed
same,EB dye,[3]; IA agent at 3%,Observed
same,EB dye penetration level,[3]; IA agent at 3%,Widely
same,"Patchy, or punctate pattern of EB dye",[3]; IA agent at 3%,Observed
same,EB dye,[3]; IA agent at 5%,Observed
same,EB dye penetration level,[3]; IA agent at 5%,Widely
same,"Patchy, or punctate pattern of EB dye",[3]; IA agent at 5%,Observed
same,Mortality,[6]; [7],53.33%
same,tested animals that experienced adverse effects,[6]; [7],almost all
same,Immediate Sudden Death,[6]; [8],3
same,Intermediate-lasting epilepsy post-injection leading to death,[6]; [8],2
same,Long-lasting epilepsy post-injection leading death,[6]; [8],3
same,Moderate-lasting epilepsy post-injection and survival to fully recovery,[6]; [8],3
same,"Transient, mild, or occasional epilepsy post-injection and survival to fully recovery",[6]; [8],4
same,overall mortality rate,[6]; repeated comparative experiments of IA EA and IA NEO100,around 60%
